Reference: patent US11807693B2 (priority 2014, dated 2023)
Like-named read-outs stand apart in the source and are kept apart here. Starred links: 1 amine or outer side, 2 acyl side, 3 side chain; linkers in the order of their positions; H or OH if unused. Non-standard residues stand in square brackets, D forms with d. Residues, ends and D or L forms follow the SMILES beside them. *: point of attachment. dBip = N[C@H](Cc1ccc(-c2ccccc2)cc1)C(=O)O; Oic = O=C(O)[C@@H]1C[C@@H]2CCCC[C@@H]2N1; Phe(4-Cl) = N[C@@H](Cc1ccc(Cl)cc1)C(=O)O; dPhe(4-Cl) = N[C@H](Cc1ccc(Cl)cc1)C(=O)O; Phe(4-I) = N[C@@H](Cc1ccc(I)cc1)C(=O)O; γGlu = O=C(O)[C@H](CCC(=O)[*:2])N[*:1]; 2Nal = N[C@@H](Cc1ccc2ccccc2c1)C(=O)O; NMeR = CN[C@@H](CCCNC(=N)N)C(=O)O; Palmitoyl = CCCCCCCCCCCCCCCC(=O)*; Tridecanoyl = CCCCCCCCCCCCC(=O)*; hArg = N=C(N)NCCCC[C@H](N)C(=O)O; 3Pal = N[C@@H](Cc1cccnc1)C(=O)O; Cha = N[C@@H](CC1CCCCC1)C(=O)O; NMeL = CN[C@@H](CC(C)C)C(=O)O; αMeL = CC(C)C[C@](C)(N)C(=O)O; β3hP = O=C(O)C[C@@H]1CCCN1; Nle = CCCC[C@H](N)C(=O)O; Orn = NCCC[C@H](N)C(=O)O; AEEA = NCCOCCOCC(=O)O

Legend:
[1] = biological target: T1, human APJ receptor (Homo sapiens, UniProt P35414); assay: [35S] GTPγS assay, human APJ receptor; type: biochemical
T1 construct: expressed in transfected cells
T1 sequence (P35414 1-380): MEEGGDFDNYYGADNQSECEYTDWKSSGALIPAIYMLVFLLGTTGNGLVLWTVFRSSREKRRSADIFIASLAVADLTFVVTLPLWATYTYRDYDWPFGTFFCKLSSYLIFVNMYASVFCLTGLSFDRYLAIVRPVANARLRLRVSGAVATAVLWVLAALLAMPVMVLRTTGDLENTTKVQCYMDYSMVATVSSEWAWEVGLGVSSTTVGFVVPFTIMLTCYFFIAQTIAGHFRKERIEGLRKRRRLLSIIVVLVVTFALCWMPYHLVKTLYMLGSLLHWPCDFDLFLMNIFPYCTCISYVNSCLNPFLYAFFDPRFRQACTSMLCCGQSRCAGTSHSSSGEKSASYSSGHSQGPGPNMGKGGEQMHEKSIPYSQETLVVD

[2] = In vitro stability in rat plasma; type: in vitro ADME
In short: (§1)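 Peptide remaining was followed by high-resolution LC-MS of methanol-quenched, centrifuged samples with internal standard. Incubations were at 37° C. over 4 hr, peptides at 5 μM final in rat plasma or in rat liver or kidney homogenate.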

[3] = In vitro stability in rat kidney homogenate; type: in vitro ADME; conditions: rat, tissue homogenate
In short: as §1

[4] = biological target: T2, rat APJ receptor (Rattus norvegicus, UniProt Q9JHG3); assay: [35S] GTPγS assay, rat APJ receptor; type: biochemical; conditions: rat APJ receptor, read-out: EC50 Rat APJ Receptor
T2 construct: expressed in transfected cells
T2 sequence (Q9JHG3 1-377): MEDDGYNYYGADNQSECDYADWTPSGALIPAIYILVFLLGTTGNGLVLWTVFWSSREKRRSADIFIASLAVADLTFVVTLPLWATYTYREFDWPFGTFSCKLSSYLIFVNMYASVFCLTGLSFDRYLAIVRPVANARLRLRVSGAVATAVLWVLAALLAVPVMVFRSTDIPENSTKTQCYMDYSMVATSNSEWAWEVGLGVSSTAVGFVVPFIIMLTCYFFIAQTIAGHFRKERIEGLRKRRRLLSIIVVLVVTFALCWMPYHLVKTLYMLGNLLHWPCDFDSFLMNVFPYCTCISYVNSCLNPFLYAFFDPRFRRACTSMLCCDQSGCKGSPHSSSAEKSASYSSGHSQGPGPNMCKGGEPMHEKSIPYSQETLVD
Procedure: The membranes were incubated with modified peptides in the assay buffer. […] Bound [^35S] GTPγS was separated from free radiolabel by filtration. The filter bound radioactivity was determined by liquid scintillation counting.

[5] = In vitro stability in rat liver homogenate; type: in vitro ADME; conditions: tissue homogenate
In short: as §1

Row | SMILES | EC50 ([1]; Table 16) | remaining at 4 h, 5 μM [2] | remaining at 4 h, 5 μM [3] | EC50 [4] | remaining at 4 h, 5 μM [5] | other results
1 | CCCCCCCCCCCCCCCC(=O)N[C@@H](CCC(=O)NCCOCCOCC(=O)NCCOCCOCC(=O)N[C@H](CCC(N)=O)C(=O)N[C@@H](CCCNC(=N)N)C(=O)N1CCC[C@H]1C(=O)N(C)[C@@H](CCCNC(=N)N)C(=O)N[C@@](C)(CC(C)C)C(=O)N[C@@H](CO)C(=O)N[C@@H](Cc1c[nH]cn1)C(=O)N[C@@H](Cc1cccnc1)C(=O)NCC(=O)N1[C@H](C(=O)N[C@@H](CCCC)C(=O)N2CCC[C@H]2CC(=O)N[C@@H](Cc2ccc(Cl)cc2)C(=O)O)C[C@@H]2CCCC[C@@H]21)C(=O)O [compound 636] ({Palmitoyl-γGlu-AEEA-AEEA}-[dQ]RP[NMeR][αMeL]SH[3Pal]G[Oic][Nle][β3hP][Phe(4-Cl)]-OH) |  |  |  |  |  | EC50 ([1]; human APJ receptor): 1.59 nM
2 | CCCC[C@H](NC(=O)[C@@H]1CCCN1C(=O)CNC(=O)[C@H](CCCCN)NC(=O)[C@H](Cc1c[nH]cn1)NC(=O)[C@H](CO)NC(=O)[C@H](CC1CCCCC1)NC(=O)[C@H](CCCCNC(=N)N)NC(=O)[C@@H]1CCCN1C(=O)[C@H](CCCNC(=N)N)NC(=O)[C@H](CCC(N)=O)NC(=O)[C@H](CCCCNC(=N)N)NC(=O)[C@H](CCCCNC(=N)N)NC(=O)[C@H](Cc1ccccc1)NC(=O)[C@H](CCCN)NC(C)=O)C(=O)N[C@@H](Cc1ccc2ccccc2c1)C(=O)O [compound 49] (Ac-[Orn]F[hArg][hArg]QRP[hArg][Cha]SHKGP[Nle][2Nal]-OH) |  |  |  |  |  | EC50 [1]: 0.159 nM
3 | CC(=O)N[C@@H](CCCCNC(=N)N)C(=O)N[C@H](CCCNC(=N)N)C(=O)N[C@@H](CCC(N)=O)C(=O)N[C@@H](CCCCNC(=N)N)C(=O)N1CCC[C@H]1C(=O)N[C@@H](CCC(=O)O)C(=O)N(C)[C@@H](CC(C)C)C(=O)N[C@@H](CO)C(=O)N[C@@H](Cc1c[nH]cn1)C(=O)N[C@@H](CCCCN)C(=O)NCC(=O)N1[C@H](C(=O)N[C@@H](Cc2ccc(I)cc2)C(=O)N2CCC[C@H]2C(=O)N[C@H](Cc2ccc(-c3ccccc3)cc2)C(=O)O)C[C@@H]2CCCC[C@@H]21 [compound 79] (Ac-[hArg][dR]Q[hArg]PE[NMeL]SHKG[Oic][Phe(4-I)]P[dBip]-OH) |  | > 90% | 1.3% | 0.341 nM | < 1% | 
4 | CCCCCCCCCCCCC(=O)N[C@@H](CCC(=O)NCCOCCOCC(=O)NCCOCCOCC(=O)N[C@@H](CCCN)C(=O)N[C@@H](Cc1ccccc1)C(=O)N[C@@H](CCCCNC(=N)N)C(=O)N[C@@H](CCCCNC(=N)N)C(=O)N[C@@H](CCC(N)=O)C(=O)N(C)[C@@H](CCCNC(=N)N)C(=O)N1CCC[C@H]1C(=O)N(C)[C@@H](CCCNC(=N)N)C(=O)N[C@@H](CC1CCCCC1)C(=O)N[C@@H](CO)C(=O)N[C@@H](Cc1c[nH]cn1)C(=O)N[C@@H](CCCCN)C(=O)NCC(=O)N1[C@H](C(=O)N[C@@H](CCCC)C(=O)N2CCC[C@H]2C(=O)N[C@@H](Cc2ccc(Cl)cc2)C(=O)O)C[C@@H]2CCCC[C@@H]21)C(=O)O [compound 297] ({Tridecanoyl-γGlu-AEEA-AEEA}-[Orn]F[hArg][hArg]Q[NMeR]P[NMeR][Cha]SHKG[Oic][Nle]P[Phe(4-Cl)]-OH) |  | > 90% | < 1% | 1.02 nM | 40.3% | 

Continued, in another order:

Row | EC50 ([1]; Table 16) | remaining at 4 h, 5 μM [2] | remaining at 4 h, 5 μM [3] | EC50 [4] | remaining at 4 h, 5 μM [5] | SMILES | other results
5 | 0.0768 nM |  |  |  |  | CCCCCCCCCCCCC(=O)N[C@@H](CCC(=O)NCCOCCOCC(=O)NCCOCCOCC(=O)N[C@@H](CCC(N)=O)C(=O)N[C@@H](CCCCNC(=N)N)C(=O)N1CCC[C@H]1C(=O)N(C)[C@@H](CCCNC(=N)N)C(=O)N[C@@H](CC1CCCCC1)C(=O)N[C@@H](CO)C(=O)N[C@@H](Cc1c[nH]cn1)C(=O)N[C@@H](CCCCN)C(=O)NCC(=O)N1CCC[C@H]1C(=O)N[C@@H](CCCC)C(=O)N1CCC[C@H]1C(=O)N[C@@H](Cc1ccc(Cl)cc1)C(=O)O)C(=O)O [compound 408] ({Tridecanoyl-γGlu-AEEA-AEEA}-Q[hArg]P[NMeR][Cha]SHKGP[Nle]P[Phe(4-Cl)]-OH) | 
6 | 6.11 nM |  |  |  |  | CCCCCCCCCCCCC(=O)N[C@@H](CCC(=O)NCCOCCOCC(=O)NCCOCCOCC(=O)N[C@@H](CCC(N)=O)C(=O)N[C@@H](CCCNC(=N)N)C(=O)N1CCC[C@H]1C(=O)N(C)[C@@H](CCCNC(=N)N)C(=O)N[C@@H](CC1CCCCC1)C(=O)N[C@@H](CO)C(=O)N[C@@H](Cc1c[nH]cn1)C(=O)N[C@@H](CCCCN)C(=O)NCC(=O)N1[C@H](C(=O)N[C@@H](CCCC)C(=O)N2CCC[C@H]2C(=O)N[C@H](Cc2ccc(Cl)cc2)C(=O)O)C[C@@H]2CCCC[C@@H]21)C(=O)O [compound 381] ({Tridecanoyl-γGlu-AEEA-AEEA}-QRP[NMeR][Cha]SHKG[Oic][Nle]P[dPhe(4-Cl)]-OH) | 
